Reference: ChEMBL document CHEMBL1201862, “PubChem BioAssay data set” (2004)
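Dose response: 5 concentrations. Exposure: 48 h. Format: 96-well plates. Endpoint: linear interpolation; highest concentration if not reached. GI50 = concentration required for 50% inhibition of growth.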 Active and inactive are the calls of the source. No stated cut-off is given here; in the data, active = GI50 up to about 1.1 µM and inactive = higher.

Tests used:
Experiment in all cases: NCI-60 cell line screen, 48 h
HOP-18 = system: HOP-18
U-251 = system: U-251
HCT-116 = system: HCT-116
SN12C = system: SN12C
OVCAR-3 = system: OVCAR-3
M19-MEL = system: M19-MEL
786-0 = system: 786-0
SNB-78 = system: SNB-78
NCI-H522 = system: NCI-H522
SK-OV-3 = system: SK-OV-3
SNB-75 = system: SNB-75
UACC-257 = system: UACC-257
UO-31 = system: UO-31
COLO 205 = system: COLO 205
RPMI-8226 = system: RPMI-8226
KM-20L2 = system: KM-20L2
NCI-H460 = system: NCI-H460
HT-29 = system: HT-29
IGROV-1 = system: IGROV-1
KM12 = system: KM12
CAKI-1 = system: CAKI-1
ACHN = system: ACHN
HOP-62 = system: HOP-62
UACC-62 = system: UACC-62
CCRF-CEM = system: CCRF-CEM
SK-MEL-28 = system: SK-MEL-28
K562 = system: K562
SK-MEL-2 = system: SK-MEL-2
HCT-15 = system: HCT-15
OVCAR-5 = system: OVCAR-5
SW-620 = system: SW-620
OVCAR-8 = system: OVCAR-8
SNB-19 = system: SNB-19
A549 = system: A549
DLD-1 = system: DLD-1
NCI-H23 = system: NCI-H23
A498 = system: A498
NCI-H226 = system: NCI-H226
DMS-114 = system: DMS-114
EKVX = system: EKVX
SF-539 = system: SF-539
SK-MEL-5 = system: SK-MEL-5
HL-60 = system: HL-60
HCC 2998 = system: HCC 2998
SF-268 = system: SF-268
TK-10 = system: TK-10
M14 = system: M14
Malme-3M = system: Malme-3M
MOLT-4 = system: MOLT-4
OVCAR-4 = system: OVCAR-4
LXFL 529 = system: LXFL 529
SF-295 = system: SF-295
HOP-92 = system: HOP-92
DMS-273 = system: DMS-273
RXF 393 = system: RXF 393
SR = system: SR
LOX IMVI = system: LOX IMVI
XF498 = system: XF498

Measured: GI50

O=c1c2ccccc2nc(-c2ccccc2)n1NCC1(O)OCC(O)C(O)C1O (centres undefined)
> 100 µM: HCT-15
inactive: HOP-18 > 100 µM | U-251 87.3 µM | HCT-116 > 100 µM | SN12C > 100 µM | OVCAR-3 > 100 µM | M19-MEL 49.8 µM | 786-0 > 100 µM | SNB-78 > 100 µM | NCI-H522 > 100 µM | SK-OV-3 > 100 µM | SNB-75 50 µM | UACC-257 > 100 µM | UO-31 > 100 µM | COLO 205 > 100 µM | RPMI-8226 52.7 µM | KM-20L2 > 100 µM | NCI-H460 30.1 µM | HT-29 > 100 µM | IGROV-1 > 100 µM | KM12 > 100 µM | CAKI-1 47.3 µM | ACHN 95.7 µM | HOP-62 > 100 µM | UACC-62 > 100 µM | CCRF-CEM 33.1 µM | SK-MEL-28 > 100 µM | K562 > 100 µM | SK-MEL-2 > 100 µM | OVCAR-5 > 100 µM | SW-620 87.5 µM | OVCAR-8 > 100 µM | SNB-19 > 100 µM | A549 81.3 µM | DLD-1 > 100 µM | NCI-H23 > 100 µM | A498 > 100 µM | NCI-H226 > 100 µM | DMS-114 > 100 µM | EKVX > 100 µM | SF-539 > 100 µM | SK-MEL-5 48 µM | HL-60 33 µM | HCC 2998 > 100 µM | SF-268 > 100 µM | TK-10 > 100 µM | M14 > 100 µM | Malme-3M > 100 µM | MOLT-4 14 µM | OVCAR-4 > 100 µM | LXFL 529 > 100 µM | SF-295 49.2 µM | HOP-92 > 100 µM | DMS-273 60.5 µM

Cc1ccc(S(=O)(=O)OCCn2cnc3nc(NC(=O)c4ccccc4)[nH]c(=O)c32)cc1
> 100 µM: HCT-15
inactive: HOP-18 > 100 µM | U-251 > 100 µM | HCT-116 > 100 µM | SN12C > 100 µM | OVCAR-3 > 100 µM | M19-MEL > 100 µM | RXF 393 > 100 µM | 786-0 > 100 µM | SNB-78 > 100 µM | NCI-H522 52.6 µM | SK-OV-3 > 100 µM | SNB-75 > 100 µM | UACC-257 > 100 µM | UO-31 > 100 µM | COLO 205 > 100 µM | RPMI-8226 > 100 µM | KM-20L2 > 100 µM | NCI-H460 > 100 µM | HT-29 > 100 µM | IGROV-1 > 100 µM | KM12 > 100 µM | CAKI-1 > 100 µM | ACHN > 100 µM | HOP-62 > 100 µM | UACC-62 > 100 µM | SR > 100 µM | CCRF-CEM > 100 µM | SK-MEL-28 > 100 µM | K562 > 100 µM | SK-MEL-2 > 100 µM | LOX IMVI > 100 µM | OVCAR-5 > 100 µM | SW-620 > 100 µM | OVCAR-8 > 100 µM | SNB-19 > 100 µM | A549 > 100 µM | DLD-1 > 100 µM | A498 > 100 µM | NCI-H226 > 100 µM | DMS-114 > 100 µM | EKVX > 100 µM | SF-539 > 100 µM | SK-MEL-5 > 100 µM | HL-60 > 100 µM | SF-268 > 100 µM | TK-10 > 100 µM | M14 > 100 µM | Malme-3M > 100 µM | OVCAR-4 > 100 µM | LXFL 529 94.6 µM | SF-295 > 100 µM | HOP-92 > 100 µM | DMS-273 > 100 µM

CCC(Oc1ccc(OC)c2c1C(=O)CCC2)C(=O)O (centres undefined)
inactive: U-251 > 100 µM | SN12C > 100 µM | OVCAR-3 > 100 µM | M19-MEL > 100 µM | RXF 393 > 100 µM | 786-0 > 100 µM | SNB-78 > 100 µM | NCI-H522 > 100 µM | SK-OV-3 > 100 µM | SNB-75 > 100 µM | UACC-257 > 100 µM | UO-31 > 100 µM | COLO 205 > 100 µM | RPMI-8226 > 100 µM | NCI-H460 > 100 µM | HT-29 > 100 µM | IGROV-1 > 100 µM | KM12 > 100 µM | ACHN > 100 µM | HOP-62 > 100 µM | UACC-62 > 100 µM | SR > 100 µM | CCRF-CEM > 100 µM | SK-MEL-28 > 100 µM | K562 > 100 µM | SK-MEL-2 > 100 µM | LOX IMVI > 100 µM | XF498 > 100 µM | OVCAR-5 > 100 µM | SW-620 > 100 µM | OVCAR-8 > 100 µM | SNB-19 > 100 µM | A549 > 100 µM | DLD-1 > 100 µM | NCI-H23 > 100 µM | A498 > 100 µM | NCI-H226 > 100 µM | DMS-114 > 100 µM | EKVX > 100 µM | SF-539 > 100 µM | SK-MEL-5 > 100 µM | HL-60 > 100 µM | HCC 2998 > 100 µM | SF-268 > 100 µM | TK-10 > 100 µM | M14 > 100 µM | Malme-3M > 100 µM | MOLT-4 > 100 µM | OVCAR-4 > 100 µM | LXFL 529 > 100 µM | SF-295 > 100 µM | DMS-273 > 100 µM
> 100 µM: HCT-15

CCn1c(=O)c2ccccc2n2c(=O)c3cc4ccccc4cc3nc12
inactive: U-251 > 100 µM | HCT-116 > 100 µM | SN12C > 100 µM | OVCAR-3 > 100 µM | M19-MEL > 100 µM | RXF 393 15.2 µM | 786-0 37.3 µM | SNB-78 39.8 µM | NCI-H522 98.9 µM | SK-OV-3 92.7 µM | SNB-75 27.4 µM | UACC-257 > 100 µM | UO-31 > 100 µM | COLO 205 > 100 µM | RPMI-8226 > 100 µM | KM-20L2 > 100 µM | NCI-H460 > 100 µM | HT-29 64.4 µM | IGROV-1 > 100 µM | KM12 > 100 µM | CAKI-1 > 100 µM | ACHN > 100 µM | HOP-62 96.8 µM | UACC-62 > 100 µM | CCRF-CEM > 100 µM | K562 > 100 µM | SK-MEL-2 > 100 µM | LOX IMVI > 100 µM | XF498 15.8 µM | OVCAR-5 > 100 µM | SW-620 > 100 µM | OVCAR-8 52.2 µM | SNB-19 52.1 µM | A549 > 100 µM | DLD-1 > 100 µM | NCI-H23 > 100 µM | A498 > 100 µM | NCI-H226 > 100 µM | DMS-114 > 100 µM | EKVX > 100 µM | SF-539 62.7 µM | SK-MEL-5 63 µM | HL-60 91.8 µM | HCC 2998 > 100 µM | SF-268 65.6 µM | TK-10 > 100 µM | M14 > 100 µM | Malme-3M > 100 µM | MOLT-4 > 100 µM | LXFL 529 > 100 µM | SF-295 28.3 µM | DMS-273 > 100 µM
> 100 µM: HCT-15

COc1ccc(/C(Cl)=C(\c2ccc(OCCN(C)C)cc2)c2ccc(OC(=O)C(C)(C)C)cc2)cc1
10.6 µM: HCT-15
inactive: U-251 13.6 µM | HCT-116 12.1 µM | SN12C 13.4 µM | OVCAR-3 15.2 µM | M19-MEL 13.7 µM | RXF 393 8.28 µM | 786-0 10.4 µM | SNB-78 16.1 µM | NCI-H522 14.8 µM | SK-OV-3 11.1 µM | SNB-75 10.2 µM | UO-31 6.95 µM | COLO 205 13.9 µM | RPMI-8226 14.3 µM | KM-20L2 3.41 µM | NCI-H460 10.3 µM | HT-29 3.85 µM | IGROV-1 17.7 µM | KM12 13.5 µM | CAKI-1 14.7 µM | ACHN 16 µM | HOP-62 16.1 µM | UACC-62 14.8 µM | SR 7.69 µM | CCRF-CEM 11 µM | SK-MEL-28 11.1 µM | K562 3.01 µM | SK-MEL-2 15.9 µM | LOX IMVI 6.61 µM | XF498 11.5 µM | OVCAR-5 15.7 µM | SW-620 13.2 µM | OVCAR-8 15.8 µM | SNB-19 16 µM | A549 15 µM | DLD-1 13.6 µM | NCI-H23 15.7 µM | NCI-H226 12.9 µM | DMS-114 12.2 µM | EKVX 13.7 µM | SF-539 13.8 µM | SK-MEL-5 14 µM | HL-60 5.97 µM | HCC 2998 15.7 µM | SF-268 13.7 µM | TK-10 18.1 µM | M14 3.58 µM | Malme-3M 13.6 µM | MOLT-4 2.91 µM | OVCAR-4 13.9 µM | LXFL 529 14 µM | SF-295 14.8 µM | HOP-92 18.1 µM | DMS-273 5.07 µM
